The results in this text go back to patent US10882843B2, “5-aminopyrazole carboxamide derivative as BTK inhibitor and preparation method and pharmaceutical composition thereof” (SUZHOU SINOVENT PHARMACEUTICALS CO., LTD., priority 2016, dated 2021).

SMILES strings stand for the structures.

Assay [1] has as its target Recombinant Btk (Homo sapiens, UniProt Q06187). As to the kind of experiment: Kinase activity (BTK) inhibition assay, TR-FRET. Particulars: read-out: BTK kinase inhibitory activity grade (A/B/C). It counts as biochemical. Here is the method:
Kinase Activity (BTK) Inhibition Assay
The inhibitory effects of the compounds disclosed herein on BTK kinase activity were tested in an assay based on a time resolved fluorescence resonance energy transfer (TR-FRET) method. Recombinant Btk was pre-incubated with the compound disclosed herein in an assay buffer containing 50 mM. Tris pH 7.4, 10 mM MgCl2, 2 mM MnCl2, 0.1 mM EDTA, 1 mM DTT, 20 nM SEB, 0.1% BSA, 0.005% tween-20 at room temperature for 1 hour. The reaction was initiated by the addition of ATP (at the ATP Km concentration) and the peptide substrate (Biotin-[…]-NH2). After incubation for 1 hour at room temperature, an equal volume of stop solution containing 50 mM HEPES pH 7.0, 800 mM KF, 20 mM EDTA, 0.1% BSA, p-Tyr66 antibody linked with Eu cryptate and streptavidin-labeled XL665 was added to stop the reaction. The plate was incubated for an additional hour at room temperature and then the TR-FRET signal was read on a BMG PHERAstar FS instrument (ex337 nm, em 620 nm/665 nm). Based on the ratio of the signal of fluorescence at […] to 665 nm, the enzyme activity was calculated with an increased compound concentration. IC50 of each compound was obtained by fitting the data to the four-parameter equation of Graphpad Prism software.
(In general: TR-FRET usually uses a lanthanide donor and a delayed reading to cut background.)

In assay [2] the target is EGFR (Homo sapiens, UniProt P00533). As to the kind of experiment: In vitro kinase selectivity assay, EGFR (TR-FRET). In kind it is biochemical. Particulars: read-out: EGFR kinase inhibitory activity grade. As for the experimental part: (§1) The assay platform for EGFR and ITK kinase activities was established using time-resolved fluorescence resonance energy transfer-based method; the assay platform for LCK, SRC and LYN kinase activities was established using Z′-Lyte method; and the assay platform for TEC and JAK3 kinase activities was established using Lance Ultra method. The inhibitory effects of the compounds disclosed herein on different kinase activities were tested separately for each compound at 11 concentrations. The IC50 value of each compound was calculated using Graphpad Prism software.
Sequence of EGFR (P00533 25-1210): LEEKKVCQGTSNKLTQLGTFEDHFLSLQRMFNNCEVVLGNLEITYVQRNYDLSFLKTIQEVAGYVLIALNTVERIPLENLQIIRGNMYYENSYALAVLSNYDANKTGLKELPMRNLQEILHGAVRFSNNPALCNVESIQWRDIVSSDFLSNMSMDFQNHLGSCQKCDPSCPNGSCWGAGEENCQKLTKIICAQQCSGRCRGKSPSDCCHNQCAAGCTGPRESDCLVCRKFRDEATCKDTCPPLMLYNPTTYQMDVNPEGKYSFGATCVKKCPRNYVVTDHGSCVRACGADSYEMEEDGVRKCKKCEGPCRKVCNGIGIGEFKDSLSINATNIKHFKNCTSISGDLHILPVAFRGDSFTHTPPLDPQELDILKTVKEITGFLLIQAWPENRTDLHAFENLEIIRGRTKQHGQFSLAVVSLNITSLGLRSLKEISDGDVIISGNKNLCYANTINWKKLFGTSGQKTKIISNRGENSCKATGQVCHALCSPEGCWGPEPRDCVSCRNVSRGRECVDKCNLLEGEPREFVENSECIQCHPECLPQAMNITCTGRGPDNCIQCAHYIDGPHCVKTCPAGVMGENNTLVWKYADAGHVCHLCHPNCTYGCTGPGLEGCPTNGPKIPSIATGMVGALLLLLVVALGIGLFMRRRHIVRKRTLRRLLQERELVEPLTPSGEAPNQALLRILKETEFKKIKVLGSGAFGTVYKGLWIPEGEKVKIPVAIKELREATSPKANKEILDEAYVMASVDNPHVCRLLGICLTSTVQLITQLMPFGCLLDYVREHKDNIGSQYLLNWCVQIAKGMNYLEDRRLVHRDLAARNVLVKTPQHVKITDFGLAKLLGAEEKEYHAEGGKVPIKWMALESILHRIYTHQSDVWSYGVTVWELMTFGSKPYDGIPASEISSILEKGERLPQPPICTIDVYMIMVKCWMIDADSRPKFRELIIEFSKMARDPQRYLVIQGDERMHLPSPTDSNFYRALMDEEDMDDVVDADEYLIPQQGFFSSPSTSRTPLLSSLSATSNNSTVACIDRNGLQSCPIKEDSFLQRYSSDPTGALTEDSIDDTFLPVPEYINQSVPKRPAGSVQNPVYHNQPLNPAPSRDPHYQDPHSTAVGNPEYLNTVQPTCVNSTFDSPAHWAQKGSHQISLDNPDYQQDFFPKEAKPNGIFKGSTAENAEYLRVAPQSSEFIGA

Assay [3] has as its target SRC (Homo sapiens, UniProt P12931). In words: In vitro kinase selectivity assay, SRC (Z'-Lyte). It counts as biochemical. Particulars: read-out: SRC kinase inhibitory activity grade. Here is the method: as §1
The target of assay [4] is T1, TEC (Homo sapiens, UniProt P42680).
T1 sequence (P42680 1-631): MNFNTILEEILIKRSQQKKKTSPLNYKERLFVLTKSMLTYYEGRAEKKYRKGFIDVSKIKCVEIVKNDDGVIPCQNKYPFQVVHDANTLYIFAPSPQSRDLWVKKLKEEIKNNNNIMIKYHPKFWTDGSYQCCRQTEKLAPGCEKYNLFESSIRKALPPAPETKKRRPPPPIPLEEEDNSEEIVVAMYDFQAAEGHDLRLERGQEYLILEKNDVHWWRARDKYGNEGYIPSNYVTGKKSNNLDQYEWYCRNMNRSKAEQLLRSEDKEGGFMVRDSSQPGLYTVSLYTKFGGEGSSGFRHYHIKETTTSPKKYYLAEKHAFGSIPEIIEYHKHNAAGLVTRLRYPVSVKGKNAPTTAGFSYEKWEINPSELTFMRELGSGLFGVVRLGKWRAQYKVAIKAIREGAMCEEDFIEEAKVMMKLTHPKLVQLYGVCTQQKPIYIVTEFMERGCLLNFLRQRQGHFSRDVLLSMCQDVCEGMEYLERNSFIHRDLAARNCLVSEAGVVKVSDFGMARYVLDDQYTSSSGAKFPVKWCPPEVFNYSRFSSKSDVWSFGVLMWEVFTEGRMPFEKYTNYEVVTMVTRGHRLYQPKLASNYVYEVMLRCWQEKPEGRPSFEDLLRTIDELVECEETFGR
In words: In vitro kinase selectivity assay, TEC (Lance Ultra). In kind it is biochemical. Particulars: read-out: TEC kinase inhibitory activity grade. As for the experimental part: as §1

Assay [5] concerns the target LCK (Homo sapiens, UniProt P06239). As to the kind of experiment: In vitro kinase selectivity assay, LCK (Z'-Lyte). In kind it is biochemical. Particulars: read-out: LCK kinase inhibitory activity grade. As for the experimental part:
as §1

Assay [6] addresses LYN (Homo sapiens, UniProt P07948). As to the kind of experiment: In vitro kinase selectivity assay, LYN (Z'-Lyte). In kind it is biochemical. Particulars: read-out: LYN kinase inhibitory activity grade. Here is the method: as §1
Assay [7] relates to diffuse large B-cell lymphoma cell line TMD-8. In words: Pharmacodynamic assay, TMD-8 xenograft in NOD.SCID mice. Particulars: p.o. daily for 21 days. It counts as in vivo. As for the experimental part: Severe immunodeficiency NOD.SCID mice were purchased from Beijing Vital River Laboratory Animal Technology Co., Ltd., and were housed in SPF grade animal room. After TMD-8 cells were cultured to the sufficient amount, the cells were collected by centrifugation and washed twice with PBS. Finally, the cells were resuspended in serum-free RPMI 1640 medium plus Matrigel (1:1 v/v). 0.2 ml of cell suspension was injected subcutaneously on the right flank of each mouse using 1 ml syringe and 25 G syringe needle. The tumor size was measured with a caliper after about one week post injection. The tumor volume was calculated according to the following formula: tumor volume=(length×width^2)/2. When the tumor volume reached about 100-200 mm^3, the mice were grouped and p.o. administered daily for 21 days.

In assay [8] the target is T2, ITK (Homo sapiens, UniProt Q08881).
T2 sequence (Q08881 1-620): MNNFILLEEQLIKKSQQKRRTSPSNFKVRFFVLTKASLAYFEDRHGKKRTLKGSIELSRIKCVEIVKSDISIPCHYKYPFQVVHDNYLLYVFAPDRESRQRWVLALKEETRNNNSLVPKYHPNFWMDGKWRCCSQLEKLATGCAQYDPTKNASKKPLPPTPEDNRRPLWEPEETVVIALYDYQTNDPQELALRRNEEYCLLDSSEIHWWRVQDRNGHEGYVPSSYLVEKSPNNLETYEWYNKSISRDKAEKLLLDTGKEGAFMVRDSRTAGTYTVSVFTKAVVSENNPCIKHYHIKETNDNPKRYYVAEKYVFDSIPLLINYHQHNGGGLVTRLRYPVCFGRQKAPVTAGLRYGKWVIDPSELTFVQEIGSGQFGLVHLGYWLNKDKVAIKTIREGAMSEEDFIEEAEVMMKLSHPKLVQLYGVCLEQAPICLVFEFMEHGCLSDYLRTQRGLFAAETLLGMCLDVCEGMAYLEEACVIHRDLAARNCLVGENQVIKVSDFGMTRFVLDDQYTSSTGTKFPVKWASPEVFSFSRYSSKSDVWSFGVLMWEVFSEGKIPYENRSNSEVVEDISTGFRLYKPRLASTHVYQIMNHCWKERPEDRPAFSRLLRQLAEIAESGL
As to the kind of experiment: In vitro kinase selectivity assay, ITK (TR-FRET). It counts as biochemical. Particulars: read-out: ITK kinase inhibitory activity grade. As for the experimental part: as §1

Sequence of Recombinant Btk (Q06187 whole entry): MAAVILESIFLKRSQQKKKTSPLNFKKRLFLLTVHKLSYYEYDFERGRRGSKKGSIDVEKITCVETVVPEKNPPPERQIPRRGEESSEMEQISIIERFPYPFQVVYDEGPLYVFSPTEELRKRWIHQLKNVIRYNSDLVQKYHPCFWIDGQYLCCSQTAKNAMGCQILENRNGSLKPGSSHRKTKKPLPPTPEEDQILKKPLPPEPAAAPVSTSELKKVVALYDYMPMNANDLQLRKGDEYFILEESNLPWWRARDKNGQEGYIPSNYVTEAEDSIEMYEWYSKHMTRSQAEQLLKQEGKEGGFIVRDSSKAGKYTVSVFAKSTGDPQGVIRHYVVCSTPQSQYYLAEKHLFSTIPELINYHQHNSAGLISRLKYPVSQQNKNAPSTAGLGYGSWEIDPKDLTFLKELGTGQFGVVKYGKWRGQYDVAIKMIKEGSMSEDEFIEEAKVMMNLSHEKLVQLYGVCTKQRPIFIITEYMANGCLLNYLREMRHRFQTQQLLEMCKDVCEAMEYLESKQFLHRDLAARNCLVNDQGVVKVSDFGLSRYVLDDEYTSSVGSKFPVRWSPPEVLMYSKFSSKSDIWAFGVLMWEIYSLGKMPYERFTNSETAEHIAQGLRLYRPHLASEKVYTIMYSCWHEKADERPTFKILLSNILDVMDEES
Sequence of LYN (P07948 whole entry, species assumed): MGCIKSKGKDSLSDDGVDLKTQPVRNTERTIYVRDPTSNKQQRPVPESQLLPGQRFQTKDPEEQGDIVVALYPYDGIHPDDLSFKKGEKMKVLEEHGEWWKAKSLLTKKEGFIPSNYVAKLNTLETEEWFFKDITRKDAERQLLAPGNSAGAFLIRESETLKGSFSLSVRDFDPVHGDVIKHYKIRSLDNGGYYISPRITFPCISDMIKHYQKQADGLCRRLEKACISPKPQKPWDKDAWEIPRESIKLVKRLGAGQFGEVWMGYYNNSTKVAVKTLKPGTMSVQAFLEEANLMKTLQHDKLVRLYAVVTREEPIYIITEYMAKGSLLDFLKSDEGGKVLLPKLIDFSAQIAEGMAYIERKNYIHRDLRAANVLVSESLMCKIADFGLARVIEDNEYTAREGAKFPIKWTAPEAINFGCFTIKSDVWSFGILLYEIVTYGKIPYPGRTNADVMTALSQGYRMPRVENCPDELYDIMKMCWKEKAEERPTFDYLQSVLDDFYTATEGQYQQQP
Sequence of SRC (P12931 whole entry, species assumed): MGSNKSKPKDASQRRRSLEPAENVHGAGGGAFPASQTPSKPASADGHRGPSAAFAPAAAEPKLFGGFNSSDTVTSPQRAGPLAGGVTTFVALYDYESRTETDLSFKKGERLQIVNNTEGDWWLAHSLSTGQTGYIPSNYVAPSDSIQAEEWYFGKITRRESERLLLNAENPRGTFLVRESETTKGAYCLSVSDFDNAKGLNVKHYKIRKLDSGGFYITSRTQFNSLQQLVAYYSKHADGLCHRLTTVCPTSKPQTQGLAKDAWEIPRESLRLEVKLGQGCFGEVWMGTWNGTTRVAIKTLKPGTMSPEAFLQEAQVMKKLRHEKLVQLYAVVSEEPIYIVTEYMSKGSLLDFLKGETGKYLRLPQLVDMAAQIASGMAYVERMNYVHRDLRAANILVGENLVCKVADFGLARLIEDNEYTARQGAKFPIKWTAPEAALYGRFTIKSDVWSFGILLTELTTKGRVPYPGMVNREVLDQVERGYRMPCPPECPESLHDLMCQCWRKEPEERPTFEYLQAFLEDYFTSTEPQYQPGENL
Sequence of LCK (P06239 whole entry, species assumed): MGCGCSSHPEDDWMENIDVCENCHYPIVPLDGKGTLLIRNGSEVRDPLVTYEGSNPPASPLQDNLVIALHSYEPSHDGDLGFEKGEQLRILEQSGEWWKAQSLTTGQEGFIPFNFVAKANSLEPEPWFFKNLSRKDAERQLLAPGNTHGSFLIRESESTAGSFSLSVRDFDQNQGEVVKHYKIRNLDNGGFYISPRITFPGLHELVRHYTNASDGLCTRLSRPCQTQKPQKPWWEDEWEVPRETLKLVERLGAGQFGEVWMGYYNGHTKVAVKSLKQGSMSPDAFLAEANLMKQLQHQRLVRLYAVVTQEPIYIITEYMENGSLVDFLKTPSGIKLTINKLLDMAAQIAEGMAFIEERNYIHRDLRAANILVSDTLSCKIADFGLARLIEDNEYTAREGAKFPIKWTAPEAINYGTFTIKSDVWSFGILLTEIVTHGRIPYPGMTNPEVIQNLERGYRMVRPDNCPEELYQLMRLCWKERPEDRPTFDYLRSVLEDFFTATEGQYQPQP

Consider `NC(=O)c1c(-c2ccc(Oc3ccc(Cl)cn3)cc2)nn(C2CCC3(CC3)N(C(=O)/C=C/CO)C2)c1N` (centres unmarked) [WS-406, (E)-5-amino-3-(4-((5-chloropyridin-2-yl)oxy)phenyl)-1-(4-(4-hydroxybut-2-enoyl)-4-azaspiro[2.5]oct-6-yl)-1H-pyrazole-4-carboxamide], for which, in assay [1], the IC50 is less than 100 nM.
Still for that read-out and setting: with `N#CN1CC(n2nc(-c3ccc(Oc4ccc(Cl)cn4)cc3)c(C(N)=O)c2N)CCC12CC2` (centres unmarked) [WS-405, 5-amino-3-(4-((5-chloropyridin-2-yl)oxy)phenyl)-1-(4-cyano-4-azaspiro[2.5]oct-6-yl)-1H-pyrazole-4-carboxamide] the figure was less than 100 nM; with `N#CN1C[C@@H](n2nc(-c3ccc(Oc4ccc(Cl)cn4)cc3)c(C(N)=O)c2N)CCC12CC2` [WS-414, (S)-5-amino-3-(4-((5-chloropyridin-2-yl)oxy)phenyl)-1-(4-cyano-4-azaspiro[2.5]oct-6-yl)-1H-pyrazole-4-carboxamide], 100 to 1000 nM.
Consider `N#CN1C[C@H](n2nc(-c3ccc(Oc4ccc(F)cc4F)cc3)c(C(N)=O)c2N)CCC12CC2` [WS-411, (R)-5-amino-1-(4-cyano-4-azaspiro[2.5]oct-6-yl)-3-(4-(2,4-difluorophenoxy)phenyl)-1H-pyrazole-4-carboxamide], for which the IC50 in assay [2] was more than 1000 nM; in assay [3], more than 1000 nM; in assay [4], less than 100 nM; in assay [5], 100 to 1000 nM; in assay [6], 100 to 1000 nM; in assay [1], less than 100 nM. Moreover, the IC50 in assay [8] was more than 1000 nM. The “growth of TMD-8 tumor in vivo” value in assay [7] is on record as “significantly inhibited the growth”.
For the molecule `CC#CC(=O)N1C[C@@H](n2nc(-c3ccc(Oc4ccc(Cl)cn4)cc3)c(C(N)=O)c2N)CCC12CC2` [WS-417], the IC50 in assay [1] lay in the range of 100 to 1000 nM.
For `C[C@@H]1CC[C@@H](n2nc(-c3ccc(Oc4ccc(Cl)cn4)cc3)c(C(N)=O)c2N)CN1C#N` [WS-403, 5-amino-3-(4-((5-chloropyridin-2-yl)oxy)phenyl)-1-((3R,6R)-1-cyano-6-methylpiperidin-3-yl)-1H-pyrazole-4-carboxamide], the IC50 in assay [1] was in the range of 100 to 1000 nM.
For `C=CC(=O)N1CC(n2nc(-c3ccc(Oc4ccc(F)cc4F)cc3)c(C(N)=O)c2N)CCC12CC2` (centres unmarked) [WS-410, 1-(4-acryloyl-4-azaspiro[2.5]oct-6-yl)-5-amino-3-(4-(2,4-difluorophenoxy)phenyl)-1H-pyrazole-4-carboxamide], the IC50 in assay [1] was less than 100 nM.
Still for that read-out and setting: with `N#CN1CC(n2nc(-c3ccc(Oc4ccc(F)cc4F)cc3)c(C(N)=O)c2N)CCC12CC2` (centres unmarked) [WS-408, 5-amino-1-(4-cyano-4-azaspiro[2.5]oct-6-yl)-3-(4-(2,4-difluorophenoxy)phenyl)-1H-pyrazole-4-carboxamide] the figure was less than 100 nM; with `C[C@H]1CC[C@H](n2nc(-c3ccc(Oc4ccc(Cl)cn4)cc3)c(C(N)=O)c2N)CN1C#N` [WS-404, 5-amino-3-(4-((5-chloropyridin-2-yl)oxy)phenyl)-1-((3S,6S)-1-cyano-6-methylpiperidin-3-yl)-1H-pyrazole-4-carboxamide], 100 to 1000 nM.
For the molecule `NC(=O)c1c(-c2ccc(Oc3ccc(F)cc3F)cc2)nn(C2CCC3(CC3)N(C(=O)/C=C/CO)C2)c1N` (centres unmarked) [WS-409, (E)-5-amino-3-(4-(2,4-difluorophenoxy)phenyl)-1-(4-(4-hydroxybut-2-enoyl)-4-azaspiro[2.5]oct-6-yl)-1H-pyrazole-4-carboxamide], the IC50 in assay [1] was less than 100 nM.
`C=CC(=O)N1CC(n2nc(-c3ccc(Oc4ccc(Cl)cn4)cc3)c(C(N)=O)c2N)CCC12CC2` (centres unmarked) [WS-407, 1-(4-acryloyl-4-azaspiro[2.5]oct-6-yl)-5-amino-3-(4-((5-chloropyridin-2-yl)oxy)phenyl)-1H-pyrazole-4-carboxamide]: the IC50 in assay [1] is less than 100 nM.
As to `CC#CC(=O)N1C[C@H](n2nc(-c3ccc(Oc4ccc(F)cc4F)cc3)c(C(N)=O)c2N)CCC12CC2` [WS-422, (R)-5-amino-1-(4-(2-butynoyl)-4-azaspiro[2.5]oct-6-yl)-3-(4-(2,4-difluorophenoxy)phenyl)-1H-pyrazole-4-carboxamide], the “growth of TMD-8 tumor in vivo” value in assay [7] is on record as “significantly inhibited the growth”.
For `C[C@H]1CC[C@@H](n2nc(-c3ccc(Oc4ccc(Cl)cn4)cc3)c(C(N)=O)c2N)CN1C#N` [WS-401, 5-amino-3-(4-((5-chloropyridin-2-yl)oxy)phenyl)-1-((3R,6S)-1-cyano-6-methylpiperidin-3-yl)-1H-pyrazole-4-carboxamide], the IC50 in assay [1] was less than 100 nM.
Take `N#CN1C[C@@H](n2nc(-c3ccc(Oc4ccc(F)cc4F)cc3)c(C(N)=O)c2N)CCC12CC2` [WS-412, (S)-5-amino-1-(4-cyano-4-azaspiro[2.5]oct-6-yl)-3-(4-(2,4-difluorophenoxy)phenyl)-1H-pyrazole-4-carboxamide]: in assay [1], the IC50 is more than 1000 nM.
With `CC#CC(=O)N1C[C@H](n2nc(-c3ccc(Oc4ccc(F)cc4F)cc3)c(C(N)=O)c2N)CCC12CC2` [WS-421, (R)-5-amino-1-(4-(2-butynoyl)-4-azaspiro[2.5]oct-6-yl)-3-(4-(2,4-difluorophenoxy)phenyl)-1H-pyrazole-4-carboxamide], in assay [1], the IC50 was less than 100 nM.
For the molecule `C[C@@H]1CC[C@H](n2nc(-c3ccc(Oc4ccc(Cl)cn4)cc3)c(C(N)=O)c2N)CN1C#N` [WS-402, 5-amino-3-(4-((5-chloropyridin-2-yl)oxy)phenyl)-1-((3S,6R)-1-cyano-6-methylpiperidin-3-yl)-1H-pyrazole-4-carboxamide], the IC50 in assay [1] lay in the range of 100 to 1000 nM.
